Patent US20260356835A1, “BICYCLIC HETEROARYL COMPOUNDS” (QuantX Biosciences US, Inc., priority 2023, published 2026)
pIC50: −log10 of the molar value.

Columns and labels:
[1] = biological target: T1, N-his8-TEV-hPARG (389-976) (Homo sapiens, UniProt Q86W56); assay: PARG Biochemical Enzymatic Assay (PARG inhibition HTRF assay); conditions: 62.5 pM PARG, 5 nM Biotin-Parylated PARP1 substrate, 60 minutes preincubation, 10 minutes reaction at 23 °C
T1 construct: N-his8-TEV-hPARG (389-976); His8 (N); TEV protease cleavage site (N); made in house; host or cells: E. coli BL21(DE3)
Protocol: PARG Biochemical Enzymatic Assay
TEV-His8-PolyADP-Ribose Polymerase 1 (379-1014) (PARP1) and N-his8-TEV-hPARG (389-976) were used to transform BL21(DE3) competent cells followed by growth for 1 hour at 37 °C and plating on Kanamycin resistant agar plates. A single colony was then inoculated into 1 ml of Luria Broth and expansion into a 1 liter scale for growth at 37 °C for 3 hours. Expression was induced via 0.2 mM IPTG induction for 20 hours at 16 °C in BL21(DE3) E. coli. Purification was then performed using a Nickel column, size exclusion chromatography and HPLC analysis.
For substrate preparation, […] nicked DNA and 2 μM PARP1 protein were mixed for 10 minutes at 25 °C 10 μM biotin-NAD+ and 100 μM NAD+ were then added and incubated for 60 minutes at 30 °C to yield PARylated PARP1 substrate.
For compound screening, compounds were serially diluted to a 3× final concentration in assay buffer (Tris pH7.5 50 mM, KCl 50 mM, Tween-20 0.01%, BSA 0.1 mg/ml, EDTA 3 mM, EGTA 0.4 mM, DTT 1 mM) containing 1% DMSO. A top concentration of 1.5 μM for a 10-point dose response curve using a 1:3 dilution curve was used. 2.5×PARG (156.25 pM working concentration, 62.5 pM final concentration) was prepared in assay buffer and 4 ul added to a 384 well assay plate containing 2 μl of serially diluted compound. The plate was then centrifuged for 10 seconds and incubated for 60 minutes at 23 °C. 4 μl of 2.5× Biotin-Parylated PARP1 (12.5 nM working concentration, 5 nM final concentration) was then added to the plate and incubated for 10 minutes at 23 °C. 4 μl of […] Detection reagent containing 0.44 μg/ml of Streptavidin-Europium cryptate and 4 μg/ml of anti-6His-XL665 monoclonal antibody was added to the plate and incubated for 60 minutes at 23 °C. The Homogeneous Time Resolved Fluorescent (HTRF) signal was then measured on an Envision plate reader using and excitation wavelength of 337 nm and emission wavelengths of 615 nm and 665 nm. Normalized percent inhibition was then calculated using the following equation: % Inhibition normalized=(compound signal-min signal)/(max signal-min signal)*100%, where Maximum signal was substrate only wells and Minimum signal was enzyme and substrate well. IC50 was calculated by fitting % Inhibition values and log of compound concentrations to nonlinear regression (log(inhibitor) vs. response—Variable slope(four parameters)) with GraphPad 9.4.1
For biochemical activity, bracket is denoted as: A<100 nM; 100 nM<B<500 nM; C>500 nM

Kuramochi cells = assay: Cellular Viability Assay (5 day Kuramochi cell viability, CellTiter-Glo); format: cell-based; conditions: 5 days, 37 °C, growth inhibition relative to Day 0 (T0) and DMSO
Protocol: Kuramochi cells were seeded at a density of 1000 cells per well in a 384-well, white, sterile, clear bottom plate, using a Multidrop liquid dispenser and incubated for 24 hours at 37 °C in a 5% CO2 humidified environment. 24 hours later, compounds were added starting at a top dose of 10 μM for a 9-point dose response curve at a 1:3 dilution using an iDOT HT liquid handler and incubated for 5 days at 37 °C in a 5% CO2 humidified environment. After 5 days and at Day 0, plates were incubated at room temperature for 30 minutes followed by the addition of 30 μl of CellTiter-Glo Reagent. Plates were then mixed for 10 minutes on an orbital shaker followed by incubation at room temperature for 20 minutes. Luminescence was then read using the Envision plate reader. Percent Growth Inhibition was then calculated using the following equation: Percent Growth Inhibition normalized=100−(compound signal−T0)/(max signal−T0)*100%, where Max Signal refers to the DMSO only treated cells and T0 refers to the Day0 viability measurement. Growth Inhibition 50 was then calculated using the following equation: Y=Bottom+(Top−Bottom)/(1+10^((Log IC50−X)*hillslope)).
For cell activity, bracket is denoted as: A<1 uM; 1 uM<B<5 uM; C>5 uM.

T1 sequence (Q86W56 389-976): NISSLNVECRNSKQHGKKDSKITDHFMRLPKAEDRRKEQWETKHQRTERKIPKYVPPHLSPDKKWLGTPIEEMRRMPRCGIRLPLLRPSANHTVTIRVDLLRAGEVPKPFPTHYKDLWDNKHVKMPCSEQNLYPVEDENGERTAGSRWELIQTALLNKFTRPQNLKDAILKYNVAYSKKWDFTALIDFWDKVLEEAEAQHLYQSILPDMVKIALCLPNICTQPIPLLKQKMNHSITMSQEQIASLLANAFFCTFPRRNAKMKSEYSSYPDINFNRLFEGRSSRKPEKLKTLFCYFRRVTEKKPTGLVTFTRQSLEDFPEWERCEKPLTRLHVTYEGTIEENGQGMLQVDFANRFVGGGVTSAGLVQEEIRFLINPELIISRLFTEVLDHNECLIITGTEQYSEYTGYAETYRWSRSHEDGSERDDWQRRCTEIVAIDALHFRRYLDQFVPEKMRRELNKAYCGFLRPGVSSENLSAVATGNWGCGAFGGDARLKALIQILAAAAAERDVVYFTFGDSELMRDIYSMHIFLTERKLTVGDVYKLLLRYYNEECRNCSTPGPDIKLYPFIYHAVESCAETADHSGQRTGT

CC1(NS(=O)(=O)c2cc(-n3cc(C4(C#N)CC4)cn3)c3cnn(-c4nnc(C5(O)CCC5)s4)c3c2)CC1 [Example 33, 4-(4-(1-cyanocyclopropyl)-1H-pyrazol-1-yl)-1-(5-(1-hydroxycyclobutyl)-1,3,4-thiadiazol-2-yl)-N-(1-methylcyclopropyl)-1H-indazole-6-sulfonamide]
pIC50 [1]: 6.30 to 7.00
pIC50 (Kuramochi cells): 5.30 to 6.00

O=S(=O)(NC1(C(F)F)CC1)c1cc(N2CCC3(CC2)COC3)c2ncc(-c3nnc(C(F)F)s3)n2c1 [Example 37, 3-(5-(difluoromethyl)-1,3,4-thiadiazol-2-yl)-N-(1-(difluoromethyl)cyclopropyl)-8-(2-oxa-7-azaspiro[3.5]nonan-7-yl)imidazo[1,2-a]pyridine-6-sulfonamide]
pIC50 [1]: > 7.00
pIC50 (Kuramochi cells): > 6.00

O=S(=O)(NC1(C(F)F)CC1)c1cc(N2CCC3(CC2)COC3)c2cnc(-c3nnc(C(F)F)s3)n2c1 [Example 39, 3-(5-(difluoromethyl)-1,3,4-thiadiazol-2-yl)-N-(1-(difluoromethyl)cyclopropyl)-8-(2-oxa-7-azaspiro[3.5]nonan-7-yl)imidazo[1,5-a]pyridine-6-sulfonamide]
pIC50 [1]: > 7.00
pIC50 (Kuramochi cells): > 6.00

N#CC1(NS(=O)(=O)c2cc(C3CCN(C(=O)C4CC4)CC3)n3ncc(-c4nnc(C(F)F)s4)c3c2)CC1 [Example 11, N-(1-cyanocyclopropyl)-7-[1-(cyclopropanecarbonyl)-4-piperidyl]-3-[5-(difluoromethyl)-1,3,4-thiadiazol-2-yl]pyrazolo[1,5-a]pyridine-5-sulfonamide]
pIC50 [1]: > 7.00
pIC50 (Kuramochi cells): > 6.00

O=S(=O)(NC1(C(F)(F)F)CC1)c1cc(N2CCC3(CC2)COC3)n2ncc(-c3nnc(C(F)F)s3)c2c1 [Example 13, 3-[5-(difluoromethyl)-1,3,4-thiadiazol-2-yl]-7-(2-oxa-7-azaspiro[3.5]nonan-7-yl)-N-[1-(trifluoromethyl)cyclopropyl]pyrazolo[1,5-a]pyridine-5-sulfonamide]
pIC50 [1]: 6.30 to 7.00
pIC50 (Kuramochi cells): 5.30 to 6.00

CC1(NS(=O)(=O)c2cc(-n3cc(C4(O)CCC4)cn3)c3cnn(-c4nnc(C5(O)CCC5)s4)c3c2)CC1 [Example 31, 4-[4-(1-hydroxycyclobutyl)pyrazol-1-yl]-1-[5-(1-hydroxycyclobutyl)-1,3,4-thiadiazol-2-yl]-N-(1-methylcyclopropyl)indazole-6-sulfonamide]
pIC50 [1]: 6.30 to 7.00
pIC50 (Kuramochi cells): 5.30 to 6.00

Cc1nnc(-c2cnn3c(N4CCC5(CC4)COC5)cc(S(=O)(=O)NC4(C)CC4)cc23)o1 [Example 9, 3-(5-methyl-1,3,4-oxadiazol-2-yl)-N-(1-methylcyclopropyl)-7-(2-oxa-7-azaspiro[3.5]nonan-7-yl)pyrazolo[1,5-a]pyridine-5-sulfonamide]
pIC50 [1]: 6.30 to 7.00
pIC50 (Kuramochi cells): > 6.00

CCCS(=O)(=O)N1CCN(c2cc(S(=O)(=O)NC3(C#N)CC3)cc3c(-c4nnc(C(F)F)s4)cnn23)CC1 [Example 18, N-(1-cyanocyclopropyl)-3-(5-(difluoromethyl)-1,3,4-thiadiazol-2-yl)-7-(4-(propylsulfonyl)piperazin-1-yl)pyrazolo[1,5-a]pyridine-5-sulfonamide]
pIC50 [1]: > 7.00
pIC50 (Kuramochi cells): > 6.00

CC(=O)N1CCN(c2cc(S(=O)(=O)NC3(C)CC3)cc3c2cnn3-c2nc3c(s2)C(=O)COC3)CC1 [Example 28, 4-(4-acetylpiperazin-1-yl)-N-(1-methylcyclopropyl)-1-(7-oxo-6,7-dihydro-4H-pyrano[3,4-d]thiazol-2-yl)-1H-indazole-6-sulfonamide]
pIC50 [1]: 6.30 to 7.00
pIC50 (Kuramochi cells): < 5.30

CC1(NS(=O)(=O)c2cc(N3CCC4(CC3)COC4)n3ncc(-c4nncs4)c3c2)CC1 [Example 5]
pIC50 [1]: > 7.00
pIC50 (Kuramochi cells): > 6.00

O=S(=O)(NC1(C(F)F)CC1)c1cc(N2CCC3(CC2)COC3)n2ncc(-c3nnc(C(F)F)s3)c2c1 [Example 10, 3-(5-(difluoromethyl)-1,3,4-thiadiazol-2-yl)-N-(1-(difluoromethyl)cyclopropyl)-7-(2-oxa-7-azaspiro[3.5]nonan-7-yl)pyrazolo[1,5-a]pyridine-5-sulfonamide]
pIC50 [1]: > 7.00
pIC50 (Kuramochi cells): > 6.00

CC1(NS(=O)(=O)c2cc(N3CCC4(CC3)COC4)n3ncc(-c4nnc(C5(C#N)CC5)s4)c3c2)CC1 [Example 8, 3-(5-(1-cyanocyclopropyl)-1,3,4-thiadiazol-2-yl)-N-(1-methylcyclopropyl)-7-(2-oxa-7-azaspiro[3.5]nonan-7-yl)pyrazolo[1,5-a]pyridine-5-sulfonamide]
pIC50 [1]: > 7.00
pIC50 (Kuramochi cells): > 6.00

Cc1nnc(-c2cnn3c(N4CCC5(CC4)COC5)cc(S(=O)(=O)NC4(C)CC4)cc23)s1 [Example 7, 3-(5-methyl-1,3,4-thiadiazol-2-yl)-N-(1-methylcyclopropyl)-7-(2-oxa-7-azaspiro[3.5]nonan-7-yl)pyrazolo[1,5-a]pyridine-5-sulfonamide]
pIC50 [1]: > 7.00
pIC50 (Kuramochi cells): > 6.00

N#CC1(c2nnc(-n3ncc4c(N5CCC6(CC5)COC6)cc(S(=O)(=O)NC5(C(F)F)CC5)cc43)s2)CC1 [Example 32, 1-(5-(1-cyanocyclopropyl)-1,3,4-thiadiazol-2-yl)-N-(1-(difluoromethyl)cyclopropyl)-4-(2-oxa-7-azaspiro[3.5]nonan-7-yl)-1H-indazole-6-sulfonamide]
pIC50 [1]: > 7.00
pIC50 (Kuramochi cells): > 6.00

CC1(NS(=O)(=O)c2cc(N3CCC4(CC3)COC4)n3ncc(-c4nc(C(F)F)cs4)c3c2)CC1 [Example 15, 3-(4-(difluoromethyl)thiazol-2-yl)-N-(1-methylcyclopropyl)-7-(2-oxa-7-azaspiro[3.5]nonan-7-yl)pyrazolo[1,5-a]pyridine-5-sulfonamide]
pIC50 [1]: > 7.00
pIC50 (Kuramochi cells): > 6.00

O=S(=O)(NC1(C(F)F)CC1)c1cc(N2CCC3(CC2)COC3)n2cnc(-c3nnc(C(F)F)s3)c2c1 [Example 35, 1-(5-(difluoromethyl)-1,3,4-thiadiazol-2-yl)-N-(1-(difluoromethyl)cyclopropyl)-5-(2-oxa-7-azaspiro[3.5]nonan-7-yl)imidazo[1,5-a]pyridine-7-sulfonamide]
pIC50 [1]: > 7.00
pIC50 (Kuramochi cells): > 6.00

CC1(NS(=O)(=O)c2cc(N3CCC4(CC3)COC4)n3cnc(-c4nnc(C(F)F)s4)c3c2)CC1 [Example 34, 1-(5-(difluoromethyl)-1,3,4-thiadiazol-2-yl)-N-(1-methylcyclopropyl)-5-(2-oxa-7-azaspiro[3.5]nonan-7-yl)imidazo[1,5-a]pyridine-7-sulfonamide]
pIC50 [1]: > 7.00
pIC50 (Kuramochi cells): > 6.00

CC1(NS(=O)(=O)c2cc(N3CCC4(CC3)COC4)n3ncc(-c4nnc(C5(F)CC5)s4)c3c2)CC1 [Example 12, 3-(5-(1-fluorocyclopropyl)-1,3,4-thiadiazol-2-yl)-N-(1-methylcyclopropyl)-7-(2-oxa-7-azaspiro[3.5]nonan-7-yl)pyrazolo[1,5-a]pyridine-5-sulfonamide]
pIC50 [1]: > 7.00
pIC50 (Kuramochi cells): > 6.00

CC1(NS(=O)(=O)c2cc(N3CCC4(CC3)COC4)n3ncc(-c4nc5ncccc5s4)c3c2)CC1 [Example 21, N-(1-methylcyclopropyl)-7-(2-oxa-7-azaspiro[3.5]nonan-7-yl)-3-(thiazolo[4,5-b]pyridin-2-yl)pyrazolo[1,5-a]pyridine-5-sulfonamide]
pIC50 [1]: > 7.00
pIC50 (Kuramochi cells): > 6.00
